Measurements as given in ChEMBL document CHEMBL5725292, “Substituted benzamides and methods of use thereof” (2017).

Assay: Radioligand Binding Assay: Binding of this radioligand was preformed in 5 mL borosilicate glass test tubes at room temperature. Binding was initiated by adding membranes to increasing concentrations of [3H]compound in 100 mMNaCl, 20 mMTrisHCl, pH 7.4 buffer containing 0.01% w/v bovine serum albumin (BSA) for 18 h. Non-specific binding was determined in the presence of 1 uM unlabelled compound. …
Set-up: species or system Homo sapiens
Description: Radioligand Binding Assay: Binding of this radioligand was preformed in 5 mL borosilicate glass test tubes at room temperature. […] Non-specific binding was determined in the presence of 1 uM unlabelled compound. […] [3H]compound bound to filters was quantified by liquid scintillation counting.

IC50 [nM] | Compound
14 | O=C(NS(O)(O)C1CC1)c1cc(C2CC2)c(CN2CCC(Oc3ccc(F)cc3Cl)CC2)cc1F
6 | COC[C@H](c1cc(Cl)cc(Cl)c1)N1CCC[C@@H](Oc2cc(F)c(C(=O)NS(C)(=O)=O)cc2C2CC2)C1
